Values joined by “and” are separate entries in the source; they are usually repeats but may differ in a detail not shown here. Identical values can stand only once. “Also recorded” adds a separate entry of the source.
What was measured:
[1] = system: R/R DLBCL/HGBL patients with MYC-altered disease; assay: Phase 1 and phase 2 clinical studies of fimepinostat, response and survival outcomes; type: in vivo, human
Description: Included subjects were enrolled in either the dose escalation and expansion portion of the phase 1 study evaluating fimepinsotat with or without rituximab (part 1) or the phase 2 study with fimepinostat monotherapy.
For the phase 1/part 1 study, key inclusion criteria were ≥18 years of age with histopathologically confirmed diagnosis of DLBCL or transformed follicular lymphoma (tFL) refractory to or relapsed after at least 2 prior regimens, Eastern Cooperative Oncology Group (ECOG) performance status 0-2, measurable disease on baseline radiographic assessment and adequate hematologic and organ function. Key exclusion criteria were receipt of systemic anti-cancer therapy within 3 weeks of study entry, ongoing treatment with chronic immunosuppressive therapy, active CNS lymphoma and gastrointestinal conditions which may interfere with absorption of fimepinostat. For the phase 2 study, key inclusion criteria were ≥18 years of age with histopathologically confirmed diagnosis of DLBCL, HGBL or tFL refractory to or relapsed after 2-4 prior lines of therapy for the treatment of de novo DLBCL and ineligible for (or failed) autologous or allogeneic stem cell transplant (SCT), Eastern Cooperative Oncology Group (ECOG) performance status 0-1, measurable disease on baseline radiographic assessment, confirmed availability of viable tissue (defined as most recent available archival tumor tissue, or fresh tumor samples) for central laboratory FISH and IHC testing prior to study dosing and adequate hematologic and organ function. Key exclusion criteria were receipt of systemic anti-cancer therapy within 2 weeks of study entry or experimental therapy within 5 terminal half-lives (t1/2) or 4 weeks prior to enrollment, known primary mediastinal, ocular, epidural, testicular or breast lymphoma and current or planned glucocorticoid therapy with the exception of doses ≤10 mg/day prednisolone or equivalent.
(§1) Patients received fimepinostat capsules (Pharmatek Laboratories Inc., San Diego, CA, USA) orally, within 30 minutes of a meal, in 21-day cycles until disease progression was documented or other discontinuation criteria were met. In the phase 2 protocol, change in dose and/or schedule intensity of fimepinostat were allowed as per protocol due to toxicity. Safety and tolerability were assessed by the incidence and severity of adverse events as determined by NCI Common Terminology Criteria for Adverse Events (CTCAE v4.03) in both protocols.
(§2) The intention to-treat-population included al patients from both protocols who received at least one dose of fimepinostat. The evaluable population includes all patients who received at least one dose of study drug (phase 1) or one full cycle of treatment (phase 2) and completed at least one post-baseline disease assessment. Patients were re-staged according to the Revised Response Criteria for Malignant Lymphoma.^18
MYC-altered disease was defined as one or more of the following results from central testing of tumor samples: expression of MYC protein in ≥40% of lymphoma cells by immunohistochemical staining (IHC), MYC rearrangement by fluorescence in situ hybridization (FISH) or >2 copies of MYC in by FISH. IHC staining of MYC (rabbit clone Y69) and BCL2 (mouse clone 124) for patients enrolled in the phase 1 study (note MYC FISH was not centrally performed in this study) were performed by Mosaic Laboratories, LLC (Lake Forest, CA, USA). IHC staining of MYC (rabbit clone Y69) and BCL2 (mouse clone 124) as well as FISH with MYC (8q24) and BCL6 (3q27) break apart probes and BCL2 (t(14;18)) fusion probe for patients enrolled in the phase 2 study were performed by NeoGenomics Laboratories, Inc (Fort Myers, FL, USA), with positive cutoff values for MYC rearrangement (>10%), MYC copy number gain (>20%), BCL2 rearrangement (≥0.5%) and BCL6 rearrangement (>10%) as defined per laboratory standard. […]

[2] = Phase 1 and phase 2 clinical studies of fimepinostat, treatment-emergent adverse events (CTCAE v4.03); type: in vivo, human; details: intention to treat population (n = 58)
Description: as §1, §2
All patients received fimepinostat 60 mg by mouth 5 days on/2 days off as the starting dose with the exception of 1 patient enrolled in the phase 1 protocol who received 60 mg by mouth three times weekly. Three patients enrolled in the phase 1 protocol received concurrent rituximab.
Treatment-emergent adverse events (TEAE) occurring per patient by highest grade experienced with a frequency of ≥10% are listed in Table 5. The most common TEAE of any grade were diarrhea (72%), nausea (52%) and thrombocytopenia (38%). The most common grade 3 or 4 adverse events were […], neutropenia (15%), diarrhea (12%) and anemia (12%). Three patients experienced grade 5 TEAE: respiratory failure deemed unlikely related to treatment in 1 patient, sepsis deemed not related to treatment in 1 patient and tracheal obstruction deemed not related to treatment in 1 patient. Two non-evaluable patients discontinued treatment due to TEAE: grade 2 vomiting deemed related to treatment occurring in 1 patient and grade 4 hypercalcemia deemed unlikely related to treatment in 1 patient.

[3] = evaluable population (n = 43), 60 mg by mouth 5 days on/2 days off
[4] = evaluable population (n = 43), estimated
[5] = individual patients achieving partial or complete response (Subject ID 1-9)

SMILES: COc1ccc(-c2nc(N3CCOCC3)c3sc(CN(C)c4ncc(C(=O)NO)cn4)cc3n2)cn1 [fimepinostat, Fimepinostat]
- Responding patients who remained on treatment for over 2 years without disease progression, number ([1]; 9 responding patients): 4
- Overall response rate ([1]; evaluable population (n = 43)): 21%
- Overall response, number of patients ([1]; evaluable population (n = 43)): 9
- Partial response, number of patients ([1]; evaluable population (n = 43)): 3
- Progressive disease, number of patients ([1]; evaluable population (n = 43)): 26
- Complete response, % of patients [1, 3]: 14%
- Complete response, number of patients [1, 3]: 6
- Alive at 6 months [1, 4]: 54% (95% CI 37-68%)
- Progression free at 6 months [1, 4]: 18% (95% CI 8-31%)
- DOR (duration of response) [1, 5]: 30.0 months and 24.4 months and 23.8 months and 1.0/1.0 months and 4.2 months and 4.1 months (2×) and 2.8 months and 40.5 months
- Status at end of study [1, 5]: Alive; also recorded: Deceased
- TTR (time to response) [1, 5]: 2.7 months and 2.8 months (3×) and 1.0/1.0 months and 1.3 months (2×) and 4.0 months and 1.2 months
- Median duration of response ([1]; responding patients of evaluable population): Not yet reached (95% CI 1.4 months-
- TEAE Abdominal pain, patients n (%) ([2]; Grade 3): 3 (5)
- TEAE Anemia, patients n (%) ([2]; Grade 3): 7 (12)
- TEAE Arthralgia, patients n (%) ([2]; Grade 3): 0 (0)
- TEAE Back pain, patients n (%) ([2]; Grade 3): 1 (2)
- TEAE Constipation, patients n (%) ([2]; Grade 3): 0 (0)
- TEAE Cough, patients n (%) ([2]; Grade 3): 0 (0)
- TEAE Decreased appetite, patients n (%) ([2]; Grade 3): 0 (0)
- TEAE Diarrhea, patients n (%) ([2]; Grade 3): 7 (12)
- TEAE Dizziness, patients n (%) ([2]; Grade 3): 0 (0)
- TEAE Dyspnea, patients n (%) ([2]; Grade 3): 3 (5)
- TEAE Edema peripheral, patients n (%) ([2]; Grade 3): 0 (0)
- TEAE Fatigue, patients n (%) ([2]; Grade 3): 1 (2)
- TEAE Hypokalemia, patients n (%) ([2]; Grade 3): 6 (10)
- TEAE Hypomagnesaemia, patients n (%) ([2]; Grade 3): 0 (0)
- TEAE Hypophosphatemia, patients n (%) ([2]; Grade 3): 4 (7)
- TEAE Lymphocyte count decreased, patients n (%) ([2]; Grade 3): 3 (5)
- TEAE Nausea, patients n (%) ([2]; Grade 3): 0 (0)
- TEAE Neutropenia, patients n (%) ([2]; Grade 3): 7 (12)
- TEAE Pain in extremity, patients n (%) ([2]; Grade 3): 1 (2)
- TEAE Pyrexia, patients n (%) ([2]; Grade 3): 1 (2)
- TEAE Thrombocytopenia, patients n (%) ([2]; Grade 3): 11 (19)
- TEAE Upper respiratory tract infection, patients n (%) ([2]; Grade 3): 0 (0)
- TEAE Vomiting, patients n (%) ([2]; Grade 3): 1 (2)
- TEAE Weight decreased, patients n (%) ([2]; Grade 3): 1 (2)
- TEAE White blood cell count decreased, patients n (%) ([2]; Grade 3): 3 (5)
- TEAE Abdominal pain, patients n (%) ([2]; Grade 4): 0 (0)
- TEAE Anemia, patients n (%) ([2]; Grade 4): 0 (0)
- TEAE Arthralgia, patients n (%) ([2]; Grade 4): 0 (0)
- TEAE Back pain, patients n (%) ([2]; Grade 4): 0 (0)
- TEAE Constipation, patients n (%) ([2]; Grade 4): 0 (0)
- TEAE Cough, patients n (%) ([2]; Grade 4): 0 (0)
- TEAE Decreased appetite, patients n (%) ([2]; Grade 4): 0 (0)
- TEAE Diarrhea, patients n (%) ([2]; Grade 4): 0 (0)
- TEAE Dizziness, patients n (%) ([2]; Grade 4): 0 (0)
- TEAE Dyspnea, patients n (%) ([2]; Grade 4): 0 (0)
- TEAE Edema peripheral, patients n (%) ([2]; Grade 4): 0 (0)
- TEAE Fatigue, patients n (%) ([2]; Grade 4): 0 (0)
- TEAE Hypokalemia, patients n (%) ([2]; Grade 4): 0 (0)
- TEAE Hypomagnesaemia, patients n (%) ([2]; Grade 4): 0 (0)
- TEAE Hypophosphatemia, patients n (%) ([2]; Grade 4): 0 (0)
- TEAE Lymphocyte count decreased, patients n (%) ([2]; Grade 4): 0 (0)
- TEAE Nausea, patients n (%) ([2]; Grade 4): 0 (0)
- TEAE Neutropenia, patients n (%) ([2]; Grade 4): 2 (3)
- TEAE Pain in extremity, patients n (%) ([2]; Grade 4): 0 (0)
- TEAE Pyrexia, patients n (%) ([2]; Grade 4): 0 (0)
- TEAE Thrombocytopenia, patients n (%) ([2]; Grade 4): 3 (5)
- TEAE Upper respiratory tract infection, patients n (%) ([2]; Grade 4): 0 (0)
- TEAE Vomiting, patients n (%) ([2]; Grade 4): 0 (0)
- TEAE Weight decreased, patients n (%) ([2]; Grade 4): 0 (0)

Reference: patent US20240044899A1, “BIOMARKERS FOR FIMEPINOSTAT THERAPY” (Curis, Inc, priority 2021, published 2024)
